Laboratory results from US7645449B2, “Sensitizing cells for apoptosis by selectively blocking cytokines” (priority 2003, dated 2010).

Legend:
Format in all cases: cell-based, human
[1] = tested on: primary neoplastic cells derived from all the histological variants of thyroid epithelial carcinomas (PTC, FTC, UTC); test: Chemotherapy-induced cell death in freshly purified thyroid carcinoma cells compared with normal thyrocytes; conditions: cisplatin 300 ng/ml, doxorubicin 5 μM, taxol 5 μM, 6, 12 and 24 h
Method: Such resistance persisted for some days and was generally lost after eight to ten days of in vitro culture (results not shown).
(§1) Thyroid cell purification and culture. Thyroid tissues from normal, PTC, FTC and UTC were digested for 2 hours with collagenase (1.5 mg/ml) (Gibco BRL, Grand Island, N.Y.) and hyaluronidase (20 μg/ml) (Sigma Chemical Co., St. Louis, Mo.) in DMEM. Thyrocytes were purified from the digested tissues by hematopoietic cell depletion with anti-CD45-coupled beads (Dynal, Wirral Merseyside, U.K.) and 12 hours of flask adherence, which allowed removal of other cells. After additional 12 hours of culture, thyroid cells were allowed to grow in monolayer for the immunocytochemistry or detached with trypsin+EDTA following exposure to cytokines or chemotherapeutic agents for functional and protein analyses. Thyrocytes were cultured in standard DMEM with 10% heat-inactivated FBS (Hyclone Laboratories, Logan, UK) in the presence or absence of human recombinant IL-4 (20 ng/ml), IL-10 (40 ng/ml) or IFN-γ (1000 IU/ml) (uroclone, Paignton, UK) and cisplatin (300 ng/ml), doxorubicin (5 μM) and taxol (5 μM) (Sigma) or TRAIL (Alexis, San Diego, USA). For the IL-4 and IL-10 neutralization, thyroid cancer cells were pretreated, for 48 hours, with anti-human IL-4 and IL-10 neutralizing antibodies (1 μg/ml) (R&D systems, MN, USA).
Cell death quantitation. Apoptotic events of neoplastic thyrocytes were evaluated by DNA staining and flow cytometry analysis. Thyroid cell pellets were resuspended in hypotonic fluoroclrome solution containing propidium iodide (50 μg/ml), in 0.1% sodium citrate and 0.1% Triton X-100. The percentage of hypodiploid nuclei was evaluated as previously described. Alternatively, freshly purified thyrocytes were plated in 96-bottomed plates in triplicate at 15,000 cells/well and cultured. The number of viable cells was detected by CellTiter Aqueous Assay Kit (Promega Corporation, WI, USA) adding 20 μl of solution reagent directly to culture wells, incubating for 1 hours at 37° C. and recording absorbance at 490 nm.
FIG. 1. […]

[2] = tested on: RT112 bladder carcinoma cells; test: MTS viability of RT112 cells: chemotherapy- and anti-CD95-induced apoptosis; conditions: RT112 without IL-4; 50 ng/ml camptothecin or 7 μM etoposide
From the text: Anticancer treatment using cytotoxic drugs mediates cell death by activating the intracellular apoptotic program. To determine whether IL-4 was able to inhibit apoptosis induced by chemotherapeutic drugs, bladder tumor cells (RT112) were pretreated for two days with different concentrations of IL-4 and subsequently exposed to camptothecin or etoposide.
Human LNCAP prostate cancer cell line and human MDA-MB-231 breast cancer cell line were obtained from the American Type Culture Collection (ATCC, Manassas, Va.). Human RT112 bladder carcinoma cell line was kindly provided by Dr. M. Cippitelli (Regina Elena Cancer Institute, Rome, Italy). Cells were grown in RPMI 1640 (Life Technologies Inc., Grand Island, N.Y.) containing 10% heat inactivated fetal bovine serum supplemented with L-Glutamine 2 mM and 100 units/ml Penicillin-Streptomycin. Cells were kept in 5% CO2 atmosphere and routinely passaged when 80-85% confluent. […] Camptothecin, cisplatin, daunorubicine, etoposide and vincristine were purchased from Sigma-Aldrich Inc. (Sain Louis, Mo.) and resuspended in DMSO (cisplatin, camptothecin and etoposide) or in H2O (daunorubicine and vincristine). Anti-CD95 agonistic antibody (clone CH11) was purchased from Upstate Biotechnology (Lake Placid, N.Y.). Monoclonal antibody anti-Bcl-XL (H5, mouse) was from Santa Cruz (Santa Cruz, Calif.), antibody anti-cFlip/FLAME-1 (NF6, mouse) was kindly provided by Dr. P.H. Krammer (German Cancer Reseach Center, Heidelberg, Germany). Antibody anti β-actin (goat) was purchased from Oncogene (Boston, Mass.):
Cell viability was determined using the CellTiter 96® AQueous One Solution Cell Proliferation Assay (Promega, Madison, Wis.), according to the manufacturer's instructions. The assay is based on reduction of 3-(4,5-dimethylthiazol-2-yl)-5-(3-carboxymethoxyphenyl)-2-(4-sulfophenyl)-2H-tetrazolium, inner salt (MTS) to a colored formazan product that is measured spectrophotometrically. Cells were seeded in 96-well tissue culture plates and incubated at 37° C. in a 5% CO2 incubator overnight. […] After two days cells were treated for 10 hours with chemotherapeutic drugs or anti-CD95, then 20 μl of MTS were added to each well. After 3 hours of incubation at 37° C. with the MTS reagent, the plates were read on a Multilabel Counter (Victor2, Wallac, Perkin-Ehmer Inc., Norwalk, Conn.) and dye absorbance was measured at 490 nm.
The percentage of apoptotic cells was derived from the percentage of viable cells that was directly calculated from the values of the MTS assay. The percentage of protection from apoptosis was determined as: % protection=100%−X
X was calculated with the formule: (C1−C2):100=(S1−S2):X where:
C1 is the viability of untreated control cells, C2 is the viability of control cells treated with the apoptotic stimulus, S1 and S2 are the viability of cells preincubated with cytoldnes or transduced with anti-apoptotic genes, untreated (S1) or treated (S2) with the apoptotic stimuli.
(A) Percentage of viable RT112 bladder carcinoma cells pre-treated for two days with increasing doses of IL-4 (5, 10, 20, 50 and 100 ng/ml) which were maintained also during incubation with chemotherapeutic drugs and exposed to 50 ng/ml camptothecin of 7 μM etoposide. […] Cell viability was determined after 24 hours using the MTS assay as described in Materials and Methods and the percentage of protection from cell death was calculated as described in Materials and Methods. The results shown are the mean ±s.d. of four independent experiments.
When the cytokine is removed by washing the percentage of protection is downmodulated.
(E) IL-4 prevents anti CD95-induced apoptosis. […] Successively, cells were incubated with 30 ng/ml anti-CD95 agonistic antibody in standard medium, Control cells (−) were stimulated with anti-CD95 in the absence of cytokine pre-treatment. The results shown are the mean ±s.d. of four independent experiments.

[3] = tested on: normal thyrocytes; test: Cytokine protection of normal thyrocytes from chemotherapy-induced apoptosis; conditions: 48 h pre-treatment, rhIL-4 20 ng/ml or rhIL-10 40 ng/ml, then drugs for 12 h
Method: Thyroid cell purification and culture. Thyroid tissues from normal, PTC, FTC and UTC were digested for 2 hours with collagenase (1.5 mg/ml) (Gibco BRL, Grand Island, N.Y.) and hyaluronidase (20 μg/ml) (Sigma Chemical Co., St. Louis, Mo.) in DMEM. Thyrocytes were purified from the digested tissues by hematopoietic cell depletion with anti-CD45-coupled beads (Dynal, Wirral Merseyside, U.K.) and 12 hours of flask adherence, which allowed removal of other cells. After additional 12 hours of culture, thyroid cells were allowed to grow in monolayer for the immunocytochemistry or detached with trypsin+EDTA following exposure to cytokines or chemotherapeutic agents for functional and protein analyses. […]
Cell death quantitation. Apoptotic events of neoplastic thyrocytes were evaluated by DNA staining and flow cytometry analysis. […] The percentage of hypodiploid nuclei was evaluated as previously described. […] The number of viable cells was detected by CellTiter Aqueous Assay Kit (Promega Corporation, WI, USA) adding 20 μl of solution reagent directly to culture wells, incubating for 1 hours at 37° C. and recording absorbance at 490 nm. […]

[4] = tested on: Bcl-xL and Bcl-2 in normal thyrocytes; test: Immunoblot of Bcl-xL and Bcl-2 in normal thyrocytes cultured with cytokines; conditions: after 48 hours of culture; IL-4 20 ng/ml, IL-10 40 ng/ml, IFN-γ 1000 IU/ml
Method: as §1
Protein isolation and Western Blotting. Cell pellets were resuspended in ice-cold NP-40 lysis buffer (50 mM Tris-HCl, pH 7.5, 150 mM NaCl, 1 mM EGTA, 1% NP-40) containing 1 mM PMSF, leupeptin (1 μg/ml), pepstatin (1 μg/ml) and aprotirni (1 μg/ml). Each lysate (30 μg) was fractioned on 12% SDS-polyacrylamide gels and blotted to nitrocellulose (Hybond, Amersham, Little Chalfont Buckinghamshire England, UK). Membrane was blocked for 1 h with nonfat dry milk in TBS containing 0.05% Tween 20 and successively incubated for 2 h with Abs specific to actin (Ab-1, mouse IgM, Calbiochem, Darmstadt, Germany), Bcl-2 (124, mouse IgG1, Upstate Biotechnology Inc.), Bcl-xL (H-5, mouse IgGl, Santa Cniz Biotechnology), IL-4 (3007.11, mouse IgG1, R&D Systems, Inc., Minneapolis, USA), IL-10 (23738.111, mouse IgG2b, R&D Systems), IFN-γ (25718.111, mouse IgG2a, R&D Systems). […]

## N.N.[Cl][Pt][Cl] [cisplatin]
[1]
  sensitivity of primary neoplastic thyroid cells to chemotherapeutic drugs (viability/apoptosis): considerable resistance

## COc1cccc2c1C(=O)c1c(O)c3c(c(O)c1C2=O)C[C@@](O)(C(=O)CO)C[C@@H]3O[C@H]1C[C@H](N)[C@H](O)[C@H](C)O1 [doxorubicin]
[1]
  sensitivity of primary neoplastic thyroid cells to chemotherapeutic drugs (viability/apoptosis): considerable resistance

## COc1cc([C@@H]2c3cc4c(cc3[C@@H](O[C@@H]3O[C@@H]5CO[C@@H](C)O[C@H]5[C@H](O)[C@H]3O)[C@H]3COC(=O)[C@H]23)OCO4)cc(OC)c1O [etoposide, reference compound]
[2]
  tumor cells undergoing apoptosis in response to chemotherapeutic agents: ~60%

## CC(=O)O[C@H]1C(=O)[C@@]2(C)[C@H]([C@H](OC(=O)c3ccccc3)[C@]3(O)C[C@H](OC(=O)[C@H](O)[C@@H](NC(=O)c4ccccc4)c4ccccc4)C(C)=C1C3(C)C)[C@]1(OC(C)=O)CO[C@@H]1C[C@@H]2O [taxol]
[1]
  sensitivity of primary neoplastic thyroid cells to chemotherapeutic drugs (viability/apoptosis): considerable resistance

## CC[C@@]1(O)C(=O)OCc2c1cc1n(c2=O)Cc2cc3ccccc3nc2-1 [camptothecin, reference compound]
[2]
  tumor cells undergoing apoptosis in response to chemotherapeutic agents: ~60%

B1: IL-10: human recombinant IL-10 (protein, UniProt P22301 19-178, looked up)
Interleukin-10: SPGQGTQSENSCTHFPGNLPNMLRDLRDAFSRVKTFFQMKDQLDNLLLKESLLEDFKGYLGCQALSEMIQFYLEEVMPQAENQDPDIKAHVNSLGENLKTLRLRLRRCHRFLPCENKSKAVEQVKNAFNKLQEKGIYKAMSEFDIFINYIEAYMTMKIRN
[3]
  prevention of death of normal thyrocytes exposed to cisplatinum, doxorubicin and taxol: drastically prevented death
[4]
  Bcl-xL and Bcl-2 expression in normal thyrocytes: upregulated

B2: IFN-γ: human recombinant IFN-γ (protein, UniProt P01579 24-161, looked up)
Interferon gamma: QDPYVKEAENLKKYFNAGHSDVADNGTLFLGILKNWKEESDRKIMQSQIVSFYFKLFKNFKDDQSIQKSVETIKEDMNVKFFNSNKKKRDDFEKLTNYSVTDLNVQRKAIHELIQVMAELSPAAKTGKRKRSQMLFRG
[4]
  Bcl-xL and Bcl-2 expression in normal thyrocytes: not effective
